# Patent US9708314B2, “Heterocyclic amide compound” (NISSAN CHEMICAL INDUSTRIES, LTD., priority 2013, dated 2017)
# Assays:
# Assay type in all cases: in vivo
# [1] = test system: Zea mays; experiment: Test Example 4: effect on crop by application to foliage (diluvial soil, plastic box); details: application to foliage, 320 g/ha
# Outline: (§1)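 Greenhouse plants (25° C. to 30° C., 14 d, diluvial soil) receive a foliar spray of water-diluted emulsifiable formulation at defined g/ha. Grading after 3 weeks uses a six-step herbicidal-ratio scale, with 4 covering 70% to <90% and 1 covering 5% to <20%.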
# [2] = test system: Glycine max; experiment: as above; details: application to foliage, 320 g/ha
# Outline: as §1
# [3] = test system: Beta vulgaris ssp. vulgaris; experiment: as above; details: application to foliage, 320 g/ha
# Outline: as §1
# [4] = test system: directly sowed Oryza sativa; experiment: as above; details: application to foliage, 320 g/ha
# Outline: as §1
# [5] = test system: Triticum aestivum; experiment: as above; details: application to foliage, 320 g/ha
# Outline: as §1
# [6] = test system: Brassica campestris L.; experiment: as above; details: application to foliage, 320 g/ha
# Outline: as §1
# [7] = test system: Leptochloa chinensis; experiment: Test Example 3: herbicidal effect by application to foliage (Wagner pot, water depth 0.1-0.5 cm); details: Nineteenth Table; application to foliage; application herbicide amount 320 g/ha
# Outline: (§2)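 Plants are raised 14 days from seed in flooded-surface Wagner pots at 25–30 °C, sprayed on stems and leaves with diluted emulsion at a predetermined rate, and rated three weeks on using a 0–5 herbicidal-ratio scale (5 ≥90%).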
# [8] = test system: Echinochloa crus-galli var. crus-galli; experiment: as above; details: Nineteenth Table; application to foliage; application herbicide amount 320 g/ha
# Outline: as §2
# [9] = test system: Cyperus difformis; experiment: as above; details: Nineteenth Table; application to foliage; application herbicide amount 320 g/ha
# Outline: as §2
Compound,"effect on crop, b (Zea mays) [1]","effect on crop, c (Glycine max) [2]","effect on crop, f (Beta vulgaris ssp. vulgaris) [3]","effect on crop, d (directly sowed Oryza sativa) [4]","effect on crop, e (Triticum aestivum) [5]","effect on crop, g (Brassica campestris L.) [6]",D (herbicidal effect grade) [7],H (herbicidal effect grade) [8],E (herbicidal effect grade) [9]
Cn1nnnc1NC(=O)c1ccc(C(F)(F)F)n2c(SCc3ccccc3)nnc12 [2-076],1 (Herbicidal ratio of 5% or more and less than 20%),0 (Herbicidal ratio of 5% or less (almost no effect)),5 (Herbicidal ratio of 90% or more (almost completely withered)),1 (Herbicidal ratio of 5% or more and less than 20%),0 (Herbicidal ratio of 5% or less (almost no effect)),4 (Herbicidal ratio of 70% or more and less than 90%),4 (Herbicidal ratio of 70% or more and less than 90%),5 (Herbicidal ratio of 90% or more (almost completely withered)),4 (Herbicidal ratio of 70% or more and less than 90%)
COc1ccc(CSc2nnc3c(C(=O)Nc4nnnn4C)ccc(C(F)(F)F)n23)cc1 [2-077],0 (Herbicidal ratio of 5% or less (almost no effect)),0 (Herbicidal ratio of 5% or less (almost no effect)),5 (Herbicidal ratio of 90% or more (almost completely withered)),2 (Herbicidal ratio of 20% or more and less than 40%),0 (Herbicidal ratio of 5% or less (almost no effect)),2 (Herbicidal ratio of 20% or more and less than 40%),4 (Herbicidal ratio of 70% or more and less than 90%),2 (Herbicidal ratio of 20% or more and less than 40%),3 (Herbicidal ratio of 40% or more and less than 70%)
Cn1nnnc1NC(=O)c1ccc(C(F)(F)F)n2c(N3CCSCC3)nnc12 [2-078],4 (Herbicidal ratio of 70% or more and less than 90%),1 (Herbicidal ratio of 5% or more and less than 20%),5 (Herbicidal ratio of 90% or more (almost completely withered)),4 (Herbicidal ratio of 70% or more and less than 90%),2 (Herbicidal ratio of 20% or more and less than 40%),5 (Herbicidal ratio of 90% or more (almost completely withered)),5 (Herbicidal ratio of 90% or more (almost completely withered)),5 (Herbicidal ratio of 90% or more (almost completely withered)),3 (Herbicidal ratio of 40% or more and less than 70%)
COCCN(C)c1nnc2c(C(=O)Nc3nnnn3C)ccc(C(F)(F)F)n12 [2-079],5 (Herbicidal ratio of 90% or more (almost completely withered)),2 (Herbicidal ratio of 20% or more and less than 40%),5 (Herbicidal ratio of 90% or more (almost completely withered)),4 (Herbicidal ratio of 70% or more and less than 90%),2 (Herbicidal ratio of 20% or more and less than 40%),5 (Herbicidal ratio of 90% or more (almost completely withered)),5 (Herbicidal ratio of 90% or more (almost completely withered)),5 (Herbicidal ratio of 90% or more (almost completely withered)),5 (Herbicidal ratio of 90% or more (almost completely withered))
CSCCNc1nnc2c(C(=O)Nc3nnnn3C)ccc(C(F)(F)F)n12 [2-080],3 (Herbicidal ratio of 40% or more and less than 70%),0 (Herbicidal ratio of 5% or less (almost no effect)),5 (Herbicidal ratio of 90% or more (almost completely withered)),4 (Herbicidal ratio of 70% or more and less than 90%),0 (Herbicidal ratio of 5% or less (almost no effect)),5 (Herbicidal ratio of 90% or more (almost completely withered)),5 (Herbicidal ratio of 90% or more (almost completely withered)),4 (Herbicidal ratio of 70% or more and less than 90%),5 (Herbicidal ratio of 90% or more (almost completely withered))
CCCn1nnnc1NC(=O)c1ccc(C(F)(F)F)n2c(C(C)C)nnc12 [2-090],3 (Herbicidal ratio of 40% or more and less than 70%),1 (Herbicidal ratio of 5% or more and less than 20%),5 (Herbicidal ratio of 90% or more (almost completely withered)),3 (Herbicidal ratio of 40% or more and less than 70%),3 (Herbicidal ratio of 40% or more and less than 70%),4 (Herbicidal ratio of 70% or more and less than 90%),4 (Herbicidal ratio of 70% or more and less than 90%),5 (Herbicidal ratio of 90% or more (almost completely withered)),5 (Herbicidal ratio of 90% or more (almost completely withered))
C=CCn1nnnc1NC(=O)c1ccc(C(F)(F)F)n2c(C(C)C)nnc12 [2-091],2 (Herbicidal ratio of 20% or more and less than 40%),0 (Herbicidal ratio of 5% or less (almost no effect)),5 (Herbicidal ratio of 90% or more (almost completely withered)),3 (Herbicidal ratio of 40% or more and less than 70%),3 (Herbicidal ratio of 40% or more and less than 70%),5 (Herbicidal ratio of 90% or more (almost completely withered)),3 (Herbicidal ratio of 40% or more and less than 70%),5 (Herbicidal ratio of 90% or more (almost completely withered)),4 (Herbicidal ratio of 70% or more and less than 90%)
CC(C)c1nnc2c(C(=O)Nc3nnnn3Cc3ccc(Cl)cc3)ccc(C(F)(F)F)n12 [2-093],0 (Herbicidal ratio of 5% or less (almost no effect)),0 (Herbicidal ratio of 5% or less (almost no effect)),2 (Herbicidal ratio of 20% or more and less than 40%),3 (Herbicidal ratio of 40% or more and less than 70%),1 (Herbicidal ratio of 5% or more and less than 20%),1 (Herbicidal ratio of 5% or more and less than 20%),2 (Herbicidal ratio of 20% or more and less than 40%),1 (Herbicidal ratio of 5% or more and less than 20%),5 (Herbicidal ratio of 90% or more (almost completely withered))
